Results reported in patent US20070134744A1, “Epothilone resistant cell lines” (priority 2000, published 2007).
“Also recorded” adds a separate entry of the source.

How the values were obtained:
315/sc5.9 cells = assay type: cell-based, human; conditions: for RF (resistance factor: IC50 resistant cell line / IC50 parental KB-31): 315/sc5.9 (EpoB selected), 72 hrs, average of three experiments
Procedure: (§1) Anti-proliferative assays are performed basically as described (Meyer et al., Int. J. Cancer 43:851 (1989)). Briefly, cells are seeded at 1.5×10^3 cells/well into 96-well microtiter plates and allowed to adhere by incubation overnight. Compounds are added in serial dilutions on day 1. The plates are then incubated for an additional 3 days, after which the cells are fixed with 3.3% v/v glutaraldehyde, washed with water and stained with 0.05% w/v methylene blue according to conventional methods. After washing, the dye is eluted with 3% HCl and the optical density measured at 665 nm with a SpectraMax Plus (Molecular Devices, Sunnyvale, Calif.) according to manufacturers instructions. IC50 values are determined by mathematical curve-fitting using the SoftPro2.6.1 program (Molecular Devices, Sunnyvale, Calif.) using the formula (OD treated−OD start)/(OD control−OD start)×100. […] IC50 determinations with the cell line 298/D4/40 are performed in the presence of 40 nM epothilone A.
(§2) Data in Table 4 are gathered according to the following methods: Cells (1×10^3) are seeded in 96-well plates and allowed to adhere for 24 hrs. Compounds are then added as two-fold serial dilutions and incubation continued for an additional 72 hrs. Cell numbers at the beginning and at the end of the experiment are estimated by methylene blue staining of cellular protein mass according to conventional methods. The net mass increase of vehicle-treated cells is set as 100% growth. The IC50 is determined as the drug concentration that leads to half-maximal growth inhibition compared to the control. The resistance factor (RF) for a particular drug is calculated by dividing the IC50 determined on the resistant cell line by that determined on the parental KB-31 cells. Data are presented as average±standard deviation (SD) of three separate experiments, except na=not applicable (n<3). Colchicine-selected KB-8511 cells overexpressing P-glycoprotein served as a reference for the classical multi-drug-resistant phenotype.

298/D4/40 cells [1] = assay type: cell-based, human; conditions: for RF (resistance factor: IC50 resistant cell line / IC50 parental KB-31): 298/D4/40 (EpoA selected), 72 hrs, in the presence of 40 nM epothilone A; for resistance profile in words: 298/D4/40 vs parental KB-31
Procedure: as §1, §2

297/C5/0 cells = assay type: cell-based, human; conditions: for RF (resistance factor: IC50 resistant cell line / IC50 parental KB-31): 297/C5/0 (EpoA selected), 72 hrs, average of three experiments; for resistance profile in words: 297/C5/0 vs parental KB-31
Procedure: as §1, §2

KB-8511 cells [2] = assay type: cell-based, human; conditions: for RF (resistance factor: IC50 resistant cell line / IC50 parental KB-31): KB-8511 (Colch selected), 72 hrs, average of three experiments; for resistance profile in words: KB-8511 vs parental KB-31
Procedure: as §2

MDA/T0.3 cells [3] = assay: MTS growth inhibition assay; assay type: cell-based; conditions: MDA/T0.3 cells, P-gp substrates; Table 2; read-out: IC50
Procedure: Growth inhibition may be analyzed using conventional methods, for example a MTS assay (PROMEGA, Wis.) may be used. In this assay approximately 4000 cells per well are seeded in 96 well plates in MEM supplemented with 10% fetal calf serum and incubated at 37° C. in 5.0% CO2. […] The MTS reagent mixed with PMS (MTS:PMS 20:1 according to manufacturer's instructions) is then added and absorbance quantitated using a Thermomax microplate reader system according to conventional methods (Molecular Devices, Sunnyvale, Calif.). […] Six assays per drug per plate are performed.
(§3) As such, epothilone resistant cells would have some degree of cross-resistance to other P-gp substrates that could be reversed by P-gp inhibitors. To investigate this possibility, the cytotoxicity of the P-gp substrates, vincristine, doxorubicine and vinblastine is determined against epothilone A resistant cells using the MTS assay. […] When EA20 and resistant MDA/T0.3 cells are incubated with TAXOL® or epothilone A in the presence of [3′-Desoxy-3′-oxo-MeBmt]^1-[Val]^2-Ciclosporin (PSC-833; a P-gp inhibitor which is disclosed in U.S. Pat. No. 5,525,590), the resistance of MDA/T0.3 cells to TAXOL® is reversed but no effect on the resistance of EA20 to epothilone A is observed.
MDA/T0.3 is a clonal subline of MDA-MB-435 cells selected by increasing exposure of MDA-MB-435 cells to TAXOL®. MDA/T0.3 cells express high levels of P-glycoprotein and are resistant to a variety of chemically and functionally unrelated compounds. MDA/T0.3 cells could be sensitized to a variety of cytotoxic agents by treatment with the P-glycoprotein reversing agent PSC-833.

298/D4/40 cells [4] = assay: Support of growth of epothilone A-dependent cells; assay type: cell-based, human; conditions: replacing epothilone A
Procedure: The epothilone resistant cell lines, EpoA320-80C, EpoA320/ND, 298/D4/40, 297/C5/0 and 315/sc5.9 are generated as disclosed above. […] A subclone, 298/D4/40, is adapted to grow in the presence of 40 nM epothilone A administered twice weekly (i.e. at every medium change). […] Furthermore, when 298/D4/40 cells are deprived of epothilone A, they growth arrest in the G2/M phase of the cell cycle and eventually die by apoptosis. […] Thus, this cell line could be employed in a drug screen, in which compounds with a potential microtubule-stabilizing mechanism could be identified by virtue of supporting the growth of epothilone A-deprived 298/D4/40 cells (see below). Nevertheless, upon prolonged incubation in the absence of epothilone A, we are able to isolate a subline that is still partially resistant to epothilone A, but has lost the drug-dependent phenotype of 298/D4/40, likely due to a cornpensating mutation. A subclone of this cell line, 297/C5/0, is used for further analyses.
Potential hits would be those that support the growth of 298/D4/40 cells similar to epothilone A (or paclitaxel) that could be included as a positive control in this assay.

EA40 cells = assay: MTS growth inhibition assay; assay type: cell-based; conditions: for IC50: EA40 cells
Procedure: Growth inhibition may be analyzed using conventional methods, for example a MTS assay (PROMEGA, Wis.) may be used. In this assay approximately 4000 cells per well are seeded in 96 well plates in MEM supplemented with 10% fetal calf serum and incubated at 37° C. in 5.0% CO2. After 24 hours, dilutions of drug (concentration range used is between 1 nM and 1000 nM) are added and cells are allowed to incubate with drug for an additional 72 hours. The MTS reagent mixed with PMS (MTS:PMS 20:1 according to manufacturer's instructions) is then added and absorbance quantitated using a Thermomax microplate reader system according to conventional methods (Molecular Devices, Sunnyvale, Calif.). […] Six assays per drug per plate are performed. […]
as §3

MDA-MB-435 cells = assay: MTS growth inhibition assay; assay type: cell-based
Procedure: (§4) Growth inhibition may be analyzed using conventional methods, for example a MTS assay (PROMEGA, Wis.) may be used. In this assay approximately 4000 cells per well are seeded in 96 well plates in MEM supplemented with 10% fetal calf serum and incubated at 37° C. in 5.0% CO2. After 24 hours, dilutions of drug (concentration range used is between 1 nM and 1000 nM) are added and cells are allowed to incubate with drug for an additional 72 hours. The MTS reagent mixed with PMS (MTS:PMS 20:1 according to manufacturer's instructions) is then added and absorbance quantitated using a Thermomax microplate reader system according to conventional methods (Molecular Devices, Sunnyvale, Calif.). […] Six assays per drug per plate are performed.
(§5) Thus, at least two potential mechanisms of epothilone A resistance may exist—a lower resistance mechanism that is cross-resistant to TAXOL® and a higher, epothilone A specific resistance mechanism.

EA10 cells = assay: MTS growth inhibition assay; assay type: cell-based; conditions: MTS, 72 hours drug, Table 1
Procedure: as §4, §5

EA20 cells [5] = assay: MTS growth inhibition assay; assay type: cell-based; conditions: MTS, 72 hours drug, Table 1
Procedure: as §4, §5

EA60 cells = assay: MTS growth inhibition assay; assay type: cell-based; conditions: MTS, 72 hours drug, Table 1
Procedure: as §4, §5

EA150 cells = assay: MTS growth inhibition assay; assay type: cell-based; conditions: for IC50: MTS, 72 hours drug, Table 1
Procedure: as §4, §5

MDA/T0.3 cells [6] = assay: Reversal of resistance by P-gp inhibitor (MTS assay); assay type: cell-based; conditions: MDA/T0.3 cells incubated with TAXOL in the presence of PSC-833
Procedure: as §4
(§6) As such, epothilone resistant cells would have some degree of cross-resistance to other P-gp substrates that could be reversed by P-gp inhibitors. To investigate this possibility, the cytotoxicity of the P-gp substrates, vincristine, doxorubicine and vinblastine is determined against epothilone A resistant cells using the MTS assay. […]

EA20 cells [7] = assay: as above; assay type: cell-based; conditions: EA20 cells incubated with epothilone A in the presence of PSC-833
Procedure: as §4, §6

KB-8511 cells [8] = conditions: cited from earlier work

| SMILES | RF (resistance factor: IC50 resistant cell line / IC50 parental KB-31) (315/sc5.9 cells) | RF (resistance factor: IC50 resistant cell line / IC50 parental KB-31) (298/D4/40 cells [1]) | resistance profile in words (298/D4/40 cells [1]) | RF (resistance factor: IC50 resistant cell line / IC50 parental KB-31) (297/C5/0 cells) | resistance profile in words (297/C5/0 cells) | RF (resistance factor: IC50 resistant cell line / IC50 parental KB-31) (KB-8511 cells [2]) | resistance profile in words (KB-8511 cells [2]) | support of growth of epothilone A-dependent cell line (298/D4/40 cells [4]) | IC50 (EA40 cells; MTS, 72 hours drug, Table 1) [µM] | IC50 (EA10 cells) [µM] | IC50 (EA20 cells [5]) [µM] | IC50 (EA60 cells) [µM] | IC50 (EA150 cells) [µM] | further results |
| --- | --- | --- | --- | --- | --- | --- | --- | --- | --- | --- | --- | --- | --- | --- |
| CC(=O)O[C@H]1C(=O)[C@@]2(C)[C@H]([C@H](OC(=O)c3ccccc3)[C@]3(O)C[C@H](OC(=O)[C@H](O)[C@@H](NC(=O)c4ccccc4)c4ccccc4)C(C)=C1C3(C)C)[C@]1(OC(C)=O)CO[C@@H]1C[C@@H]2O [Paclitaxel, paclitaxel] | 1.4 | 200.1 | either partially or fully cross-resistant; also recorded: full cross-resistance | 98.3 | either partially or fully cross-resistant; also recorded: full cross-resistance | 209.6 | resistant | able to substitute for epothilone A | 0.023 ± 0.004 | 0.013 ± 0.0031 | 0.022 ± 0.004 | 0.027 ± 0.0031 | 0.034 ± 0.0026 | resistance profile in words (315/sc5.9 cells; 315/sc5.9 vs parental KB-31): marginal cross-resistance; IC50 (MDA/T0.3 cells [3]): 0.54 ± 0.1 µM; IC50 (EA40 cells; P-gp substrates, Table 2): 0.021 ± 0.003 µM; resistance profile in words (EA40 cells; EA40 vs MDA-MB-435 / EA150): equally resistant; IC50 (MDA-MB-435 cells; Homo sapiens, MTS, 72 hours drug, Table 1): 0.0075 ± 0.003 µM; IC50 (MDA-MB-435 cells; Homo sapiens, P-gp substrates, Table 2): 0.0075 ± 0.003 µM |
| C/C=C/C[C@@H](C)C(=O)[C@H]1C(=O)N[C@@H](C(C)C)C(=O)N(C)CC(=O)N(C)[C@@H](CC(C)C)C(=O)N[C@@H](C(C)C)C(=O)N(C)[C@@H](CC(C)C)C(=O)N[C@@H](C)C(=O)N[C@H](C)C(=O)N(C)[C@@H](CC(C)C)C(=O)N(C)[C@@H](CC(C)C)C(=O)N(C)[C@@H](C(C)C)C(=O)N1C [PSC-833, [3′-Desoxy-3′-oxo-MeBmt]^1-[Val]^2-Ciclosporin] | – | – | – | – | – | – | – | – | – | – | – | – | – | effect on resistance to TAXOL (MDA/T0.3 cells [6]): reversed; effect on resistance to epothilone A (EA20 cells [7]): no effect |
| C/C(=C\c1csc(C)n1)[C@@H]1C[C@@H]2O[C@]2(C)CCC[C@H](C)[C@H](O)[C@@H](C)C(=O)C(C)(C)[C@@H](O)CC(=O)O1 [Epothilone B, epothilone B] | 3.1 | 9.2 | either partially or fully cross-resistant | 7.7 | either partially or fully cross-resistant | 0.9 | retain full activity | able to substitute for epothilone A | 0.008 ± 0.0035 | 0.003 ± 0.0014 | 0.006 ± 0.0029 | 0.01 ± 0.0042 | 0.015 ± 0.0031 | resistance (315/sc5.9 cells; 315/sc5.9 vs parental KB-31): 3.1 fold; IC50 (MDA-MB-435 cells; MTS, 72 hours drug, Table 1): 0.002 ± 0.0008 µM; resistance profile in words (EA150 cells): very little resistance |
| COc1cc2c(c(OC)c1OC)-c1ccc(OC)c(=O)cc1[C@@H](NC(C)=O)CC2 [colchicine] | – | – | – | – | – | – | – | – | – | – | – | – | – | relative resistance compared to KB-31 cells (KB-8511 cells [8]): ~40 fold |
